The target of one experiment is human NAMPT (Homo sapiens, UniProt P43490). Nature of the experiment: Human recombinant enzyme assay (NMN fluorescence biochemical assay, activation of NAMPT). A digest of the protocol: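 Activation of recombinant human NAMPT (6 nM) with 2.5 mM ATP, 20 μM PRPP and 150 μM nicotinamide in 50 mM HEPES pH 7.2, 1 mM DTT, 1 mM CHAPS, 50 mM NaCl, 100 mM MgCl2; 60 min, ambient temperature. NMN formed was derivatized with acetophenone/KOH/formic acid, fluorescence read at 355/460 nm after 40 min.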
human NAMPT, sequence (P43490 whole entry): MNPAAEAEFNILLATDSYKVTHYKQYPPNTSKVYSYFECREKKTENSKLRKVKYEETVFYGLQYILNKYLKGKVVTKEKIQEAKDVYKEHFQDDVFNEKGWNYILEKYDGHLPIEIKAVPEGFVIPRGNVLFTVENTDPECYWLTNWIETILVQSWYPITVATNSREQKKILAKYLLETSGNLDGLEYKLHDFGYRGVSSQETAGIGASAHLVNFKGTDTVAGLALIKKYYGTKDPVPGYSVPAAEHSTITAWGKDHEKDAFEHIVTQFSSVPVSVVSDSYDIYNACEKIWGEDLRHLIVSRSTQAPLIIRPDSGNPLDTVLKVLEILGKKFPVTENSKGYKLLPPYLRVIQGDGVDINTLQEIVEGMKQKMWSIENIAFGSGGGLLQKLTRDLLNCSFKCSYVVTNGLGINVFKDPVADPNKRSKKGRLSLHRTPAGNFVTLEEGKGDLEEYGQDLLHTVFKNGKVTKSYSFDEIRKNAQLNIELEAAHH

The target of a further experiment is T1, endogenous NAMPT (Homo sapiens, UniProt P43490).
T1 construct: stimulate the endogenous NAMPT in a native cellular environment; endogenous in cells; host or cells: SH-SY5Y neuroblastoma cells
T1 sequence (P43490 whole entry): as above
The experiment can be described thus: Cellular NAD+ modulation assay in neuroblastoma SH-SY5Y cells. Format: cell-based. The method, then:
The compounds described herein were also assayed for their ability to stimulate the endogenous NAMPT in a native cellular environment in the cellular NAD+ modulation assay, which measures the ability of the compound to modulate cellular NAD levels. Increased levels of NAD are expected by compounds that permeate the cells and activate the catalytic activity of the endogenous NAMPT.
Neuroblastoma SH-SY5Y cells were grown in 1:1 mixture of Eagle's Minimum Essential Medium and F12 Medium, along with 10% fetal bovine serum, in a humidified incubator with an atmosphere of 95% air and 5% CO2 at 37° C. The assays were initiated by plating 20 μL of SH-SY5Y cells in culture medium with 0.1% fetal bovine serum, at a density of 5000 cells per well to a 384-well Corning™ BioCoat™ Poly-D-Lysine Multiwell Plates. The plates were incubated in the 37° C. incubators for a period of 5 hours. Compounds in DMSO were added to the plates in a volume of 120 nL using the Labcyte Echo Liquid Handlers. […] The plates are then incubated for 40 hours. 30 μL of a readout-solution containing 0.2 U/mL Diaphorase enzyme, 40 uM resazurin, 10 uM FMN, 0.8 U/mL Alcohol dehydrogenase, 3% ethanol, 0.4 mg/mL bovine serum albumin, 0.2% Triton X-100 in 100 mM Tris-HCl, 30 mM EDTA, pH 8.4. The plates were read for fluorescence (Excitation/Emission=540 nm/590 nm) using an EnVision plate reader after 60 mins of incubation at ambient temperature.

Where [1] appears, read: Table A, human recombinant NAMPT, NMN formation, 60 min.
[2] abbreviates: Table A, human recombinant NAMPT, NMN formation, 60 min, read-out: EC50 Human.
Where [3] appears, read: Table B, SH-SY5Y cells, cellular NAD levels, doxorubicin, 40 hours.
Setting [4] is: Table B, SH-SY5Y cells, cellular NAD levels, doxorubicin, 40 hours, read-out: EC50.

Where two headings read alike, the source gives them in different places.

Take `Cc1ccccc1C(=O)N1CC[C@]2(C1)C[C@@H](NC(=O)NCc1ccc(Cl)cc1)C2` [Compound 162, 1-(4-chlorobenzyl)-3-((2r,4s)-6-(2-methylbenzoyl)-6-azaspiro[3.4]octan-2-yl)urea]: the “AC1.4 Human” value at human NAMPT (setting [1]) worked out at 6.2 µM. Moreover, the results for the EC50 on human NAMPT (setting [2]) and at endogenous NAMPT (setting [4]) were 21.7 µM and 1 µM, respectively. For the same compound, the AC0.3 on endogenous NAMPT (setting [3]) came out at 0.7 µM.
With `COc1ccc(CNC(=O)N[C@H]2C[C@]3(C2)C[C@H](C(=O)N2CCCc4ccccc42)C3)cc1` (stereo partly drawn) [Compound 229, 1-(4-methoxy-benzyl)-3-(6-(1,2,3,4-tetrahydro-quinoline-1-carbonyl)spiro[3.3]heptan-2-yl)urea], the EC50 (in general, the midpoint of the concentration-response curve) is 1.2 µM at human NAMPT (setting [2]) and 0.2 µM at endogenous NAMPT (setting [4]).
Take `COc1ccc(CNC(=O)NC2CC3(C2)CC(C(=O)N2CCN(CC(C)(C)O)CC2)C3)cc1` (stereo not drawn) [Compound 76, 1-(6-(4-(2-hydroxy-2-methylpropyl)piperazine-1-carbonyl)spiro[3.3]heptan-2-yl)-3-(4-methoxybenzyl)urea]: the “AC1.4 Human” value at human NAMPT (setting [1]) turned out to be 0.7 µM. Further, the EC50 at human NAMPT (setting [2]) amounted to 17.8 µM; at endogenous NAMPT (setting [4]), 4.7 µM. At endogenous NAMPT (setting [3]), this compound came in with an AC0.3 of 5.9 µM.
As to `COc1ccc(CNC(=O)NC2CC3(C2)CC(C(=O)N(C)C2CCOC2)C3)cc1` (stereo in doubt) [Compound 79, (R)-6-(3-(4-methoxybenzyl)ureido)-N-methyl-N-(tetrahydrofuran-3-yl)spiro[3.3]heptane-2-carboxamide], the “AC1.4 Human” value at human NAMPT (setting [1]) came out at 1.4 µM. In addition, the EC50 at human NAMPT (setting [2]) is 39.8 µM; on endogenous NAMPT (setting [4]), 5.8 µM. Moreover, the AC0.3 on endogenous NAMPT (setting [3]) is 5.8 µM.
Turning to `[2H]C([2H])(CCCC1CCN(C(=O)c2ccccc2)CC1)NC(=O)NCc1cnco1` [Compound 293, 1-(4-(1-benzoylpiperidin-4-yl)butyl-1,1-d2)-3-(oxazol-5-ylmethyl)urea], the “AC1.4 Human” value at human NAMPT (setting [1]) was 0.1 µM. The EC50 on human NAMPT (setting [2]) worked out at 1.5 µM; at endogenous NAMPT (setting [4]) it was 0.3 µM. The AC0.3 at endogenous NAMPT (setting [3]) was found to be 0.3 µM.
For `Cc1ccc(C(=O)N2CC3(CC(NC(=O)NCc4ccncc4)C3)C2)cc1` [Compound 210, 1-(2-(4-methylbenzoyl)-2-azaspiro[3.3]heptan-6-yl)-3-(pyridin-4-ylmethyl)urea], on human NAMPT (setting [1]), the “AC1.4 Human” value stood at 1.9 µM. Further, the EC50 on human NAMPT (setting [2]) was found to be 49.9 µM; on endogenous NAMPT (setting [4]) it was 9 µM. Besides, the AC0.3 on endogenous NAMPT (setting [3]) worked out at 9.7 µM.
As to `CN(C(=O)CCCCCNC(=O)NCc1cn[nH]c1)c1ccccc1F` [Compound 287, 6-(3-((1H-pyrazol-4-yl)methyl)ureido)-N-(2-fluorophenyl)-N-methylhexanamide], the “AC1.4 Human” value on human NAMPT (setting [1]) was 0.1 µM. Further, the EC50 at human NAMPT (setting [2]) was 4.4 µM; at endogenous NAMPT (setting [4]) it was 1 µM. The AC0.3 on endogenous NAMPT (setting [3]) worked out at 0.3 µM.
For `COc1ccc(CNC(=O)NC2CC3(C2)CC(C(=O)N2CCCc4ccccc42)C3)cc1` (stereo not drawn) [Compound 71, 1-(4-methoxybenzyl)-3-(6-(1,2,3,4-tetrahydroquinoline-1-carbonyl)spiro[3.3]heptan-2-yl)urea], on human NAMPT (setting [1]), the “AC1.4 Human” value is 0.1 µM. For the same compound, the concentration giving a half-maximal response (EC50) was 1.5 µM on human NAMPT (setting [2]) and 0.9 µM at endogenous NAMPT (setting [4]). For the same compound, the AC0.3 at endogenous NAMPT (setting [3]) came to 0.3 µM.
`CC(C)(C)OC(=O)N1CCC2(CC1)CC2CNC(=O)NCc1ccc(C(N)=O)cc1` (stereo not drawn) [Compound 33, tert-butyl 1-((3-(4-carbamoylbenzyl)ureido)methyl)-6-azaspiro[2.5]octane-6-carboxylate]: the values for the EC50 on human NAMPT (setting [2]) and on endogenous NAMPT (setting [4]) were 19.8 µM and 8.4 µM, respectively.
As for `COc1ccc(CNC(=O)NC2CC3(C2)CN(C(=O)c2ccnc(C)c2)C3)cc1` [Compound 140, 1-(4-methoxybenzyl)-3-(2-(2-methylisonicotinoyl)-2-azaspiro[3.3]heptan-6-yl)urea], the “AC1.4 Human” value at human NAMPT (setting [1]) came out at 7.5 µM. The EC50 on human NAMPT (setting [2]) turned out to be 52.5 µM; at endogenous NAMPT (setting [4]) it was 6.3 µM. The same compound showed an AC0.3 on endogenous NAMPT (setting [3]) of 8.2 µM.
In the case of `COc1ccc(CNC(=O)NC2CC3(C2)CC(C(=O)N2CCOc4ccccc42)C3)cc1` (stereo not drawn) [Compound 85, 1-(6-(3,4-dihydro-2H-benzo[b][1,4]oxazine-4-carbonyl)spiro[3.3]heptan-2-yl)-3-(4-methoxybenzyl)urea], the “AC1.4 Human” value on human NAMPT (setting [1]) was 0.1 µM. The 50% effective concentration (EC50) was found to be 1.6 µM at human NAMPT (setting [2]) and 0.8 µM at endogenous NAMPT (setting [4]). At endogenous NAMPT (setting [3]), this compound had an AC0.3 of 0.9 µM.
As to `Cc1cccc(N2CC[C@]3(C2)C[C@H](NC(=O)NCc2ccc(Cl)cc2)C3)n1` [Compound 199, 1-(4-chlorobenzyl)-3-((2s,4r)-6-(6-methylpyridin-2-yl)-6-azaspiro[3.4]octan-2-yl)urea], at human NAMPT (setting [1]), the “AC1.4 Human” value was found to be 10.6 µM. Besides, on human NAMPT (setting [2]), the EC50 stood at 42.2 µM. This compound displayed an AC0.3 on endogenous NAMPT (setting [3]) of 2.0 µM.
Consider `O=C(NCCCCC(=O)N1CCCc2ccccc21)NCc1ccc(Cl)cc1` [Compound 256, 1-(4-chlorobenzyl)-3-(5-(3,4-dihydroquinolin-1(2H)-yl)-5-oxopentyl)urea], for which the “AC1.4 Human” value at human NAMPT (setting [1]) came out at 1.0 µM. In addition, the EC50 at human NAMPT (setting [2]) is 2 µM; on endogenous NAMPT (setting [4]), 0.3 µM. Further, on endogenous NAMPT (setting [3]), the AC0.3 turned out to be 0.3 µM.
Regarding `CC(C)(O)CN1CCN(C(=O)[C@H]2C[C@@]3(C[C@H](NC(=O)NCc4ccc(Cl)cc4)C3)C2)CC1` (single isomer, unassigned) [Compound 187], the values for the EC50 on human NAMPT and on endogenous NAMPT were 0.6 µM and 0.2 µM, respectively.
Consider `COc1ccc(CNC(=O)NC2CC3(C2)CC(C(=O)N2CCc4ccccc42)C3)cc1` (stereo not drawn) [Compound 74, 1-(6-(indoline-1-carbonyl)spiro[3.3]heptan-2-yl)-3-(4-methoxybenzyl)urea], for which the “AC1.4 Human” value at human NAMPT (setting [1]) is 0.8 µM. In addition, the EC50 stood at 13.3 µM on human NAMPT (setting [2]) and 0.5 µM on endogenous NAMPT (setting [4]). In addition, at endogenous NAMPT (setting [3]), the AC0.3 is 0.3 µM.
With `O=C(NCCOCCOc1ccccc1)NCc1ccc(Cl)cc1` [Compound 196, 1-(4-chlorobenzyl)-3-(2-(2-phenoxyethoxy)ethyl)urea], on human NAMPT (setting [1]), the “AC1.4 Human” value stood at 3.7 µM. Besides, the EC50 turned out to be 25.5 µM on human NAMPT (setting [2]) and 3.3 µM at endogenous NAMPT (setting [4]). The AC0.3 at endogenous NAMPT (setting [3]) is 1.0 µM.
`Cc1ncccc1CC1CC2(C1)CC(NC(=O)NCc1ccc(Cl)cc1)C2` (stereo not drawn) [Compound 346, 1-(4-chlorobenzyl)-3-(6-((2-methylpyridin-3-yl)methyl)spiro[3.3]heptan-2-yl)urea]: the “AC1.4 Human” value on human NAMPT (setting [1]) is 62.5 µM. The EC50 at human NAMPT (setting [2]) is above 62.5 µM; at endogenous NAMPT (setting [4]), 0.1 µM. At endogenous NAMPT (setting [3]), this compound returned an AC0.3 of 0.1 µM.
Consider `NC(=O)c1ccc(CNC(=O)NC2CC3(C2)CC(NC(=O)c2ccccc2)C3)cc1` (stereo not drawn) [Compound 14, N-(6-(3-(4-carbamoylbenzyl)ureido)spiro[3.3]heptan-2-yl)benzamide], for which the “AC1.4 Human” value at human NAMPT (setting [1]) worked out at 2.7 µM. In addition, the values for the EC50 at human NAMPT (setting [2]) and at endogenous NAMPT (setting [4]) were 35.3 µM and at least 20.1 µM, respectively. For the same compound, at endogenous NAMPT (setting [3]), the AC0.3 was above 20.1 µM.
With `COc1ccc(CNC(=O)NC2CC3(C2)CN(C(=O)c2ccc(C)cc2)C3)cc1` [Compound 145, 1-(4-methoxybenzyl)-3-(2-(4-methylbenzoyl)-2-azaspiro[3.3]heptan-6-yl)urea], the “AC1.4 Human” value on human NAMPT (setting [1]) amounted to 1.4 µM. For the same compound, the figures for the EC50 at human NAMPT (setting [2]) and at endogenous NAMPT (setting [4]) were 45.3 µM and 3.1 µM, respectively. This compound returned an AC0.3 at endogenous NAMPT (setting [3]) of 1.1 µM.
Turning to `COc1ccc(CNC(=O)NC2CC3(C2)CN(C(=O)c2ccncc2)C3)cc1` [Compound 139, 1-(2-isonicotinoyl-2-azaspiro[3.3]heptan-6-yl)-3-(4-methoxybenzyl)urea], the “AC1.4 Human” value at human NAMPT (setting [1]) turned out to be 16.4 µM. Further, the concentration for a half-maximal effect (EC50) at human NAMPT (setting [2]) worked out at 44.9 µM.
Turning to `COc1ccc(CNC(=O)NC2CC3(CC(CN4CCc5ccccc54)C3)C2)cc1` (stereo not drawn) [Compound 128, 1-(6-(indolin-1-ylmethyl)spiro[3.3]heptan-2-yl)-3-(4-methoxybenzyl)urea], the “AC1.4 Human” value at human NAMPT (setting [1]) turned out to be 0.6 µM. In addition, on human NAMPT (setting [2]), the EC50 worked out at 20.8 µM.
As for `CC(C)(C)OC(=O)N1CCC(NC(=O)NCc2ccc(C(N)=O)cc2)CC1` [Compound 5, tert-butyl 4-(3-(4-carbamoylbenzyl)ureido)piperidine-1-carboxylate], the concentration for a half-maximal effect (EC50) on human NAMPT (setting [2]) amounted to 48.6 µM.
For the compound `COc1ccc(CNC(=O)NC2CC3(CC(Cc4ccc(C)cc4)C3)C2)cc1` (stereo not drawn) [Compound 334, 1-(4-methoxybenzyl)-3-(6-(4-methylbenzyl)spiro[3.3]heptan-2-yl)urea], on human NAMPT (setting [1]), the “AC1.4 Human” value worked out at 2.3 µM. In addition, on human NAMPT (setting [2]), the EC50 stood at 2.7 µM.
Consider `Cc1ccc(C(=O)N2CCC(CCCCNC(=O)NCc3ccc(Cl)cc3)CC2)cn1` [Compound 309, 1-(4-chlorobenzyl)-3-(4-(1-(6-methylnicotinoyl)piperidin-4-yl)butyl)urea], for which the “AC1.4 Human” value at human NAMPT (setting [1]) came to 2.1 µM. In addition, at human NAMPT (setting [2]), the EC50 came to 6.5 µM.

Values taken from patent US20230348369A1 (Cytokinetics, Inc., priority 2020, published 2023).
